Experimental data as given in ChEMBL document CHEMBL1201862, “PubChem BioAssay data set” (2004).
Activity calls are given as the source filed them.

Legend:
[1] = microbe, parasite or virus in culture; format: functional; conditions: Mycobacterium tuberculosis
[2] = cells; format: functional
[3] = biological target: FAD-linked sulfhydryl oxidase ALR (Homo sapiens, UniProt P55789); assay: inhibitors of human ALR sulfhydryl oxidase, dose response, biochemical, H2O2 detection, luminescence, cherry-pick (AID 493248)
Chain of FAD-linked sulfhydryl oxidase ALR (P55789 whole entry): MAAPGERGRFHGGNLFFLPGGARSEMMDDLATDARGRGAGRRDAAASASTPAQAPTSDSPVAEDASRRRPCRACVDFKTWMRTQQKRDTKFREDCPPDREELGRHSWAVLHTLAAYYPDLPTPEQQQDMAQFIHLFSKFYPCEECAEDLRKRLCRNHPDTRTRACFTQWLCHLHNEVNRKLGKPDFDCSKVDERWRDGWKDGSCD

[4] = Luminescence Cell-Based Dose Retest to Confirm Inhibitors of Cancer Stem Cells. [Related pubchem assays (depositor defined):AID2717, AID2721]; format: functional; conditions: Homo sapiens
[5] = biological target: T1, Leucine aminopeptidase (Plasmodium falciparum 3D7, UniProt Q8IL11); assay: P. falciparum M17LAP inhibitors, primary screen, biochemical, fluorogenic H-Leu-NHMec substrate, 1536-well (AID 1619); format: functional
T1 sequence (Q8IL11 whole entry): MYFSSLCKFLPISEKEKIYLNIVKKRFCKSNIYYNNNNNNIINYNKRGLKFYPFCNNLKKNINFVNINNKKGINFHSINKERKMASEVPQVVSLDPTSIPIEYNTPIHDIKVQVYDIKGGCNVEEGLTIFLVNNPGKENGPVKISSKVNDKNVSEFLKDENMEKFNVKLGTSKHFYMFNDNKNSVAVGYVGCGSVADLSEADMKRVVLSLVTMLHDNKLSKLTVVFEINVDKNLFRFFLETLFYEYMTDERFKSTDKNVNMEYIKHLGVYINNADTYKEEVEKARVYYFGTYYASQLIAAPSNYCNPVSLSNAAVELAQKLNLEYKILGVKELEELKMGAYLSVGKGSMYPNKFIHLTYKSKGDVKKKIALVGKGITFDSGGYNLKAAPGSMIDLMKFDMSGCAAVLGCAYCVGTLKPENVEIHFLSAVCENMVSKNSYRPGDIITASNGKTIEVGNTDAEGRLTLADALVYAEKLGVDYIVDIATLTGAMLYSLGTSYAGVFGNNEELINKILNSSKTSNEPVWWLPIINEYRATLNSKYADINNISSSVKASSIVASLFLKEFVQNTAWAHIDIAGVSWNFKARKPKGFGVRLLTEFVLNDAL

[6] = biological target: Glucose-6-phosphate 1-dehydrogenase (Homo sapiens, UniProt P11413); assay: human G6PD enzyme inhibitors, dose response, selectivity assay for P. falciparum G6PD inhibitor project, biochemical, fluorescence (AID 504792); format: functional
Chain of Glucose-6-phosphate 1-dehydrogenase (P11413 whole entry): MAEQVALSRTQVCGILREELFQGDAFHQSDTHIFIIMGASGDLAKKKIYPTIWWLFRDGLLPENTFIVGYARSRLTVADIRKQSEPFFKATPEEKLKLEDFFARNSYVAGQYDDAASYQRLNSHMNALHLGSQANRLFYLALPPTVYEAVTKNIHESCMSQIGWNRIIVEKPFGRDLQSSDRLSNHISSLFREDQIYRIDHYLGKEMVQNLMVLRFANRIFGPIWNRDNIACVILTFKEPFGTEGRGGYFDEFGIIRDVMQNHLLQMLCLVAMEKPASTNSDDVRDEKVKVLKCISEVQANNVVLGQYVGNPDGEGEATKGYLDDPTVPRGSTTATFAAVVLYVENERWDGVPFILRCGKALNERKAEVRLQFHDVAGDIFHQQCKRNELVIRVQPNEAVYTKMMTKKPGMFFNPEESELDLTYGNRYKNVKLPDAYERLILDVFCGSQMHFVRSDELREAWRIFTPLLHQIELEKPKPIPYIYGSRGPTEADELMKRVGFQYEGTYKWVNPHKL

[7] = biological target: T2, Calpain-2 catalytic subunit (Sus scrofa, UniProt P43367); assay: pig calpain II inhibitor potency, dose response, biochemical, fluorogenic peptide substrate (AID 1420); format: functional
T2 sequence (P43367 whole entry): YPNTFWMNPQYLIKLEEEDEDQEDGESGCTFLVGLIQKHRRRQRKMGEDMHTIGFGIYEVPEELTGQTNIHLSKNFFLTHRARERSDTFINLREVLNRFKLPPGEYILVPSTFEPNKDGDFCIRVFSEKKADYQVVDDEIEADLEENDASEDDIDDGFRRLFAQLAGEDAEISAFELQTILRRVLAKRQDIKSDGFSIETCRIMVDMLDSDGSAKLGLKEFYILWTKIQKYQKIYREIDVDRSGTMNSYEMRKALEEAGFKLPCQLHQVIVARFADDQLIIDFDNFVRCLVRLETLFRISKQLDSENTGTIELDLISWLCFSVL

[8] = tested on: INS1; assay: beta cell apoptosis inhibitors, cytokine rescue, dose response, luminescence, retest (AID 449756); format: functional, cell-based; conditions: Rattus norvegicus;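 also: cell death triggered by IL-1 beta plus TNF-alpha plus IFN-gamma mixture; protective hits raise ATP signal compared with cytokine alone wells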
[9] = tested on: Streptococcus sp. 'group A'; assay: growth inhibition of control SK(-) GAS strain, dose response, counter-screen for streptokinase expression inhibitor project, luminescence, kanamycin, BacTiterGlo, confirmation (AID 1900); format: functional, organism-based
[10] = tested on: H9c2; assay: cells; format: functional, cell-based; conditions: Rattus norvegicus, H9c2, Myocardium;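 also: confirmatory concentration-response retest of ultra-high-throughput screening hits for modulation of myocardial damage; cell death induced by hydrogen peroxide oxidative stress; compound pretreatment for 60 min then peroxide exposure for 2 h; potency is for protecting the cells against peroxide damage rather than for killing them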
[11] = HEp-2 cell cytotoxicity, dose response, cytotoxicity control for RSV inhibitor project, HTS (AID 2410); format: functional; conditions: human respiratory syncytial virus
[12] = tested on: Streptococcus; assay: Group A Streptococcus viability loss, dose response, counter-screen for streptokinase expression inhibitor project, luminescence, BacTiterGlo (AID 1915); format: functional, organism-based;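 also: potency for reduction of bacterial viability or growth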
[13] = biological target: Genome polyprotein (dengue virus type 2, UniProt P29990); assay: Dengue-2 NS5 methyltransferase inhibitors, primary screen, biochemical, confirmation dose response (AID 588689); format: functional
Chain of Genome polyprotein (P29990 2492-3391 limits assumed): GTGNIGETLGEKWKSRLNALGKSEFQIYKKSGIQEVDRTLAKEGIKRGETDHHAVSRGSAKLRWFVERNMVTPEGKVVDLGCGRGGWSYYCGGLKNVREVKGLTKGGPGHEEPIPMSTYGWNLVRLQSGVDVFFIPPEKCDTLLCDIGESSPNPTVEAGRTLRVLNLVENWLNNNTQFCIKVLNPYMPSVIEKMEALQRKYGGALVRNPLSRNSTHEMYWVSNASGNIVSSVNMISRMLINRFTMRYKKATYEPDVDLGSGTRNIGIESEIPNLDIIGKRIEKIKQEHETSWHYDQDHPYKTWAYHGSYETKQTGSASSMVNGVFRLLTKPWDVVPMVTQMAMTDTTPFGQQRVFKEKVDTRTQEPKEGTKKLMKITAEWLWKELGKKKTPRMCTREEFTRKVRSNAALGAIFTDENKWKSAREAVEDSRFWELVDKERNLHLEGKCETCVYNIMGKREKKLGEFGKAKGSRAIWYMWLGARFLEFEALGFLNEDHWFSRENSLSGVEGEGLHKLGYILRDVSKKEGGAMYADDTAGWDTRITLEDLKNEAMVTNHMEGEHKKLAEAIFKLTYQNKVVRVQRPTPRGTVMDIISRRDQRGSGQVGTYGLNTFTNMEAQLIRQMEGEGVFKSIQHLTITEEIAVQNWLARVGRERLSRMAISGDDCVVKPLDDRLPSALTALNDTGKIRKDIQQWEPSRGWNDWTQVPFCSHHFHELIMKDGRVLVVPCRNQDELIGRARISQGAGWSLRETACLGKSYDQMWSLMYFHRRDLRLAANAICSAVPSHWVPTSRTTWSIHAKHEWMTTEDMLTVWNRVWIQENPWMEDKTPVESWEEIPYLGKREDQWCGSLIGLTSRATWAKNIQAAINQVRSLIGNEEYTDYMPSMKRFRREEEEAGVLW

[14] = HepG2 cell cytotoxicity, dose response, cytotoxicity control for Shn3 inhibitor project, CellTiter-Glo, cherry-picked (AID 624134); format: functional, cell-based
[15] = control 3'UTR Renilla luciferase suppression, dose response, counter-screen for Shn3 inhibitor project, cell-based, Clone20-Shn3RL, cherry-picked (AID 624133); format: functional
[16] = Shn3 3'UTR reporter inhibitors, dose response, cell-based, Clone20 osteoblasts, firefly luciferase, cherry-picked (AID 624132); format: functional;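 also: firefly luciferase luminescence from reporter carrying the Shn3 3'UTR in osteoblasts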
[17] = biological target: T3, Protein skinhead-1 (Caenorhabditis elegans, UniProt P34707); format: functional
T3 sequence (P34707 whole entry): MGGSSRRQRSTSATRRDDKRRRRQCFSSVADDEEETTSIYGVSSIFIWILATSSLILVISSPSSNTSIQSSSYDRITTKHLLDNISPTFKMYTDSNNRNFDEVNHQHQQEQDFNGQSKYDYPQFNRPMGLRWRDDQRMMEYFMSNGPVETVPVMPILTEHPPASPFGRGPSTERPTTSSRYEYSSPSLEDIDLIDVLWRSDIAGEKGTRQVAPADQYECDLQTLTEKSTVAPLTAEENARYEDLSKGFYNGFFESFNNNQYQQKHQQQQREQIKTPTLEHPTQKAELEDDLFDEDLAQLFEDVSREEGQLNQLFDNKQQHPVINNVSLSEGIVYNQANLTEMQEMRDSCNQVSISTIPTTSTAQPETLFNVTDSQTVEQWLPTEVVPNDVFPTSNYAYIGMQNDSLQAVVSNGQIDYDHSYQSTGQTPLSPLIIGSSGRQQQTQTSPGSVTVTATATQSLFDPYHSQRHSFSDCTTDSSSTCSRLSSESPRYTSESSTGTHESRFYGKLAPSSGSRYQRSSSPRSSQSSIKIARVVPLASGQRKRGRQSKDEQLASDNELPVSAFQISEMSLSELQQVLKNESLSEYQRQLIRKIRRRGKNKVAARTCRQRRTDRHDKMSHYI

[18] = tested on: P388/ADR; assay: cells; format: functional; conditions: Mus musculus
[19] = tested on: SN12K1; assay: cells; format: functional; conditions: Homo sapiens
[20] = tested on: P388; assay: cells; format: functional; conditions: Mus musculus
[21] = inhibitors of HIV Env-driven cell fusion, dose response, cherry-pick (AID 652057); format: functional, cell-based
[22] = biological target: Cytochrome P450 3A4 (Homo sapiens, UniProt P08684);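 also: CYP3A4 tested as one member of a cytochrome P450 panel screen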
Chain of Cytochrome P450 3A4 (P08684 whole entry): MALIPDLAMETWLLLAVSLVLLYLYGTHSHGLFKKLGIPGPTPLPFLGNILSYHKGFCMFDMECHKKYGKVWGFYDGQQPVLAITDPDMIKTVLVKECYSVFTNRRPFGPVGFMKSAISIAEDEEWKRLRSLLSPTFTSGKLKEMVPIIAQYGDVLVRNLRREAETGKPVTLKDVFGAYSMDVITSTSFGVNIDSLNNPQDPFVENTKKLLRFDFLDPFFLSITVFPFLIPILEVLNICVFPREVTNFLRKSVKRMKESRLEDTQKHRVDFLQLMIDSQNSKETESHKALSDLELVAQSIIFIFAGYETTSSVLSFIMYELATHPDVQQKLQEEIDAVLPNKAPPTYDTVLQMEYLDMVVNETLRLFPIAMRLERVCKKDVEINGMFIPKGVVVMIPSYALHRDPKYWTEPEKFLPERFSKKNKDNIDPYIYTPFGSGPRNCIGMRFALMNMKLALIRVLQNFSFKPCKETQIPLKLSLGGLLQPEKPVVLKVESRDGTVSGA

[23] = biological target: Cytochrome P450 2C9 (Homo sapiens, UniProt P11712)
Chain of Cytochrome P450 2C9 (P11712 whole entry): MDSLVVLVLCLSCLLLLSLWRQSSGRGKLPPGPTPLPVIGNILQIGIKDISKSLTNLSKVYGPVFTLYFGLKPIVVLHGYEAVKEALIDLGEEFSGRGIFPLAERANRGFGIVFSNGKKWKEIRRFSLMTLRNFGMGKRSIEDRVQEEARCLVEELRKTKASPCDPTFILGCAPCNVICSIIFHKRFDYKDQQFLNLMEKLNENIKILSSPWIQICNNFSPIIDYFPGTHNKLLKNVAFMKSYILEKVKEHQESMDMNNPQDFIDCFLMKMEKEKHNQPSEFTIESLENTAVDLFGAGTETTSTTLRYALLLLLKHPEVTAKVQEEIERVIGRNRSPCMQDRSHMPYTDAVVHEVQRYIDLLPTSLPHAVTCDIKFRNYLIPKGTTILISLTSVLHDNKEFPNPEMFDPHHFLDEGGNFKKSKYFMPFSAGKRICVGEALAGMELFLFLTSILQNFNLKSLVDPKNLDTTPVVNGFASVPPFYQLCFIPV

Cc1ccc(-c2cc(C(F)(F)F)n3nc(C(=O)NCCCn4ccnc4)cc3n2)cc1C
CC50 [1]: > 40 µM (active) | IC50 [2]: > 50 µM (active)

Cc1ccc(CSC2=NCCN2C(=O)c2ccco2)cc1
AC50 [3]: 2.85 µM (active)

O=C(NN/C=C1\C(=O)N(Cc2ccccc2)C(=O)c2ccccc21)c1cccnc1
AC50 [3]: 3.35 µM (active)

Cc1nc(-c2ccc(NC(=O)CC(C)C)cc2)cs1
AC50 [3]: 2.38 µM (active)

CCCNC(=O)COC(=O)c1cc2c(=O)n3ccccc3nc2s1
IC50 [2]: 39.2 µM (active)

CCCOc1ccc2c(c1)C(=NN=C(N)N)c1cc(OCCC)ccc1-2
AC50 [4]: 3.33 µM (active) | CC50 [1]: 12.2 µM (active)

Cc1cc(NS(=O)(=O)c2ccc(NC(=O)c3cnc4scc(C)n4c3=O)cc2)nc(C)n1
IC50 [5]: 23.1 µM (active)

O=C(CN1C(=O)C2C3C=CC(C3)C2C1=O)OCC(=O)c1ccc([N+](=O)[O-])cc1 (stereo not drawn)
IC50 [6]: > 80 µM (inactive)

Nc1n[nH]c(N)c1N=Nc1ccc(F)cc1
AC50 [3]: 2.29 µM (active) | IC50 [5]: 8.11 µM (active) | IC50 [7]: 30.8 µM (not active)

Clc1ccc(-c2[nH]ncc2N=Nc2ccccc2)cc1
AC50 [8]: > 120 µM (inactive) | CC50 [1]: > 40 µM (active)

Cc1cc(C)c2ccc(NN)nc2c1O
CC50 [1]: > 40 µM (active) | EC50 [9]: 3.27 µM (active) | IC50 [10]: 5.06 µM (active) | CC50 [11]: 36 µM (active) | EC50 [12]: 6.5 µM (active)

Cc1cc(Nc2[nH]nc(N)c2C#N)ccc1F
AC50 [3]: 2.22 µM (active)

O=C(OCC(=O)N1CCCCC1)c1cc2ccccc2cc1O
IC50 [2]: 5.15 µM (active)

COC(=O)c1c(C)c2c(C)cc3ccccn3c-2c1C(=O)OC
IC50 [13]: > 100 µM (active)

CCOC(=O)Cn1c(=S)[nH]c2c(oc3ccc(Cl)cc32)c1=O
IC50 [5]: 19.5 µM (active)

CSc1ncc(C(=O)Nc2ccc(Br)cn2)c(C)n1
CC50 [1]: > 40 µM (active)

CC1Nc2ncnc(N3CCN(c4ccccc4)CC3)c2N(Cc2ccc(Br)cc2)C1=O (stereo not drawn)
CC50 [1]: > 40 µM (active) | IC50 [10]: > 79 µM (inactive)

[O-]/[N+](=C/c1cccnc1)c1ccc(Br)cc1
IC50 [6]: 28.2 µM (inactive)

CCc1nc(N2CCN(C(C)=O)CC2)c2c3c(sc2n1)CC(C(C)(C)C)CC3 (stereo not drawn)
AC50 [8]: 3.36 µM (active) | AC50 [14]: 58.6 µM (active) | CC50 [1]: > 40 µM (active) | AC50 [15]: 11.3 µM (active) | AC50 [16]: 6.76 µM (active)

O=C(NCc1cccs1)c1cc(-c2ccc(O)cc2)on1
IC50 [2]: 45 µM (active)

O=S(=O)(Nc1ccc(C(F)(F)F)cc1)c1c[nH]cn1
IC50 [5]: 28.3 µM (active) | IC50 [17]: > 100 µM (inactive)

Nc1ccc(-c2ccc(N)c(C(=O)O)c2)cc1C(=O)O
AC50 [3]: 2.38 µM (active)

Cc1ccc(S(=O)(=O)SC/C=C/CSS(=O)(=O)c2ccc(C)cc2)cc1
IC50 [6]: 59.5 µM (inactive)

COc1ccc(C2CC(c3sc(Nc4ccc(C)cc4)nc3C)=NN2)cc1 (stereo not drawn)
GI50 [18]: 4.99 µM (inactive) | GI50 [19]: 14.9 µM (inactive) | GI50 [20]: 6.79 µM (inactive)

O=NN(CCCl)C(=O)N[C@H]1CC[C@H](C(=O)O)CC1
GI50 [18]: 7.1 µM (inactive) | GI50 [19]: > 100 µM (inactive) | GI50 [20]: 4.86 µM (inactive)

COc1cc(/C=N/Nc2ccc(Cl)nn2)cc(OC)c1O
AC50 [3]: 0.005 µM (active)

NC(CN(O)N=O)C(=O)O (stereo not drawn)
GI50 [18]: 8.45 µM (inactive) | GI50 [19]: 0.792 µM (active) | GI50 [20]: 16.5 µM (inactive)

C[C@@H]1CN([C@@H](C)CO)C(=O)Cc2cc(NC(=O)c3ccncc3)ccc2O[C@H]1CN(C)Cc1ccc(Cl)c(Cl)c1
AC50 [21]: 30.4 µM (active)

C=C1CC(OC)(C(O)C(=O)N[C@H]2OCO[C@H]3C2O[C@H](C[C@@H](COC)OC)C(C)(C)C3OC)O[C@H](C)[C@@H]1C (stereo partly drawn)
GI50 [18]: < 0.00482 µM (active) | GI50 [19]: < 0.00482 µM (active) | GI50 [20]: < 0.00482 µM (active)

C=C1C(=O)C[C@@]23CCC[C@@]12CC(OCOC)C3 (stereo partly drawn)
GI50 [18]: 0.531 µM (active) | GI50 [19]: 1.84 µM (inactive) | GI50 [20]: 0.431 µM (active)

CN1C(=O)/C(=C/c2ccco2)S/C1=N/c1cccc(C(=O)O)c1
IC50 [5]: 50.6 µM (active)

COc1c(OC(C)=O)ccc(/C=N\NC(=O)c2ccc(Br)cc2)c1[N+](=O)[O-]
IC50 [13]: 96.5 µM (active)

NC(=O)c1ncn2c1NC(=O)CC2
GI50 [18]: > 100 µM (inactive) | GI50 [19]: > 100 µM (inactive) | GI50 [20]: > 31.6 µM (inactive)

COc1cc(NS(C)(=O)=O)ccc1Nc1c2ccccc2nc2ccccc12 [AMSACRINE]
AC50 [22]: 20 µM (inconclusive) | GI50 [18]: 0.265 µM (active) | GI50 [19]: 0.106 µM (active) | AC50 [23]: inconclusive | GI50 [20]: 0.0318 µM (active)

COc1cc(C[C@H]2c3cc(OC)c(OC)cc3CCN2C)c(Oc2cc3c(cc2OC)-c2c(OC)c(OC)cc4c2[C@H](C3)N(C)CC4)cc1OC [THALICARPINE]
GI50 [18]: 8.51 µM (inactive) | GI50 [19]: 7.93 µM (inactive) | GI50 [20]: 4.24 µM (inactive)
